Measurements taken from paper PMC8307404, “Crystal Structure-Guided Design of Bisubstrate Inhibitors and Photoluminescent Probes for Protein Kinases of the PIM Family” (Molecules, 2021).
“And” between values parts separate entries of the source, which are not always exact repeats. Equal entries are not always repeated. Square brackets hold non-standard residues; d marks the D form. Peptide text beside a SMILES is read from it. * marks the point of attachment. X7 = Nc1nccc(-c2ccc(C(=O)*)s2)n1; Ahx = NCCCCCC(=O)O

Tests used:
PIM1 [1] = biological target: T1, PIM1 (Homo sapiens, UniProt P11309); assay: Thermal shift assay; format: binding; parameters: made in house; settings: 2 μM kinase, 12.5 μM compound; mean ± SEM, N = 2
T1 sequence (P11309 whole entry): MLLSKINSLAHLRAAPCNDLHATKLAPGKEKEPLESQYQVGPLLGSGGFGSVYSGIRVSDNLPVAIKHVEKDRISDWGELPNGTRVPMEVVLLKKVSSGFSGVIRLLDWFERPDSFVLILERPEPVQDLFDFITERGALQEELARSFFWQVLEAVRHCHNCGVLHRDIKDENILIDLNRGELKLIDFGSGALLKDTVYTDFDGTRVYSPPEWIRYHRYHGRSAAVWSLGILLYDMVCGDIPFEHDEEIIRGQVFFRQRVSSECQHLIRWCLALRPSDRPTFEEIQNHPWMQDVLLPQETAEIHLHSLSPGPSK
Procedure: (§1) Thermal shift assay measurements were performed following the previously published protocol [61] using a real-time PCR instrument (Mx3005p RT-PCR, Stratagene; La Jolla, California). […] The measurements were carried out in PCR low-profile microplate wells (ABgene; Portsmouth, NH, USA). The temperature scan was run from 25 to 95 °C at 1 °C/min. GraphPad Prism v. 6.0 (GraphPad Software, Inc.; San Diego, CA, USA) and Microsoft Excel v. 2007 (Microsoft Office; Redmond, WA, USA) were used for data processing and analysis.

PIM3 [2] = biological target: T2, PIM3 (Homo sapiens, UniProt Q86V86); assay: Thermal shift assay; format: binding; parameters: made in house; settings: 2 μM kinase, 12.5 μM compound; mean ± SEM, N = 2
Procedure: as §1

PIM2 [3] = biological target: T3, PIM2 (Homo sapiens, UniProt Q9P1W9); assay: Thermal shift assay; format: binding; parameters: made in house; settings: 2 μM kinase, 12.5 μM compound; mean ± SEM, N = 2
T3 sequence (Q9P1W9 whole entry): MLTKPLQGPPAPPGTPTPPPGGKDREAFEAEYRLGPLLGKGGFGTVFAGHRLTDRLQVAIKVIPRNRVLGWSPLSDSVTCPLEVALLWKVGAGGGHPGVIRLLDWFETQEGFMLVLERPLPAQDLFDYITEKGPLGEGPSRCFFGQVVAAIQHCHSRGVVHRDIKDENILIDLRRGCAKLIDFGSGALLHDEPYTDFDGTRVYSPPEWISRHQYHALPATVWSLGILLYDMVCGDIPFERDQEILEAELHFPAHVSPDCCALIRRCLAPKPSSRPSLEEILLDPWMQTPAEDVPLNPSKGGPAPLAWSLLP
Procedure: as §1

PKAcα = biological target: T4, PKAcα (Homo sapiens, UniProt P17612); assay: Binding/displacement assay with FA or TGLI readout; settings: TGLI or FA readout; mean ± SEM, N = 2; read-out: KD, nM (PKAcα)
T4 construct: purchased Biaffin GmbH & Co KG (Kassel, Germany)
Procedure: The affinities of the compounds toward the PIM family PKs were determined in a binding/displacement assay with measurement of fluorescence anisotropy (FA) and time-gated luminescence intensity (TGLI) (Table 2). For the initial assessment of the selectivity of compounds, PKAcα was used as the reference basophilic kinase.
Optical FA measurement modules for 5-TAMRA-labeled compounds (ex. 540(20) nm, em. 590(20) nm and 590(20) nm), for Cy5-labeled compounds (ex. 590(50) nm, em. 675(50) nm and 675(50) nm), and optical TGLI measurement modules for ARC-1451 (ex. 330(60) nm, em. 590(50) nm), for ARC-1188 (ex. 330(60) nm, em. 675(50) nm) were used for assays with PHERAstar microplate reader (BMG Labtech; Ortenberg, Germany). TGLI measurements were performed with a delay time of 50 μs and integration of the signal for 150 μs. In each measurement, emission from 200 flashes of excitation radiation was collected. The measurement solutions (20 µL volumes) were prepared in black 384-well low-binding surface microtiter plates (Corning #4514; Kennebunk, ME, USA) and incubated for 20 min at 30 °C before the measurements. The assay buffer contained HEPES hemisodium salt (pH 7.4, 50 mM), NaCl (150 mM), dithiothreitol (5 mM), bovine serum albumin (0.5 mg/mL), and Tween-20 (0.005%). GraphPad Prism v. 5.04 (GraphPad Software, Inc.) was used for data analysis with FA [32] or TGLI [33] readouts. Representative titration curves can be found in Supplementary Figure S7.

PIM2 [4] = biological target: T3, PIM2; assay: Binding/displacement assay with FA or TGLI readout; parameters: made in house; settings: mean ± SEM, N = 2
Procedure: (§2) The affinities of the compounds toward the PIM family PKs were determined in a binding/displacement assay with measurement of fluorescence anisotropy (FA) and time-gated luminescence intensity (TGLI) (Table 2). For the initial assessment of the selectivity of compounds, PKAcα was used as the reference basophilic kinase [10].
(§3) Optical FA measurement modules for 5-TAMRA-labeled compounds (ex. 540(20) nm, em. 590(20) nm and 590(20) nm), for Cy5-labeled compounds (ex. 590(50) nm, em. 675(50) nm and 675(50) nm), and optical TGLI measurement modules for ARC-1451 (ex. 330(60) nm, em. 590(50) nm), for ARC-1188 (ex. 330(60) nm, em. 675(50) nm) were used for assays with PHERAstar microplate reader (BMG Labtech; Ortenberg, Germany). TGLI measurements were performed with a delay time of 50 μs and integration of the signal for 150 μs. In each measurement, emission from 200 flashes of excitation radiation was collected. The measurement solutions (20 µL volumes) were prepared in black 384-well low-binding surface microtiter plates (Corning #4514; Kennebunk, ME, USA) and incubated for 20 min at 30 °C before the measurements. The assay buffer contained HEPES hemisodium salt (pH 7.4, 50 mM), NaCl (150 mM), dithiothreitol (5 mM), bovine serum albumin (0.5 mg/mL), and Tween-20 (0.005%). […] 5.04 (GraphPad Software, Inc.) was used for data analysis with FA [32] or TGLI [33] readouts.

PIM3 [5] = biological target: T2, PIM3; assay: Binding/displacement assay with FA or TGLI readout; parameters: made in house; settings: mean ± SEM, N = 2
Procedure: as §2, §3

PIM1 [6] = biological target: T1, PIM1; assay: Binding/displacement assay with FA or TGLI readout; parameters: made in house
Procedure: as §2, §3

PIM-1-TagRFP = biological target: T5, PIM-1-TagRFP (Homo sapiens, UniProt P11309); assay: Co-localization study, TIRF microscopy; format: cell-based; settings: live U2OS cells, 48 h transfection, 1 h incubation with 2.5 or 5 μM probe
T5 construct: expressed in transfected cells; host or cells: U2OS (human osteosarcoma), transient, 48 h, FuGENE HD
T5 sequence (P11309 whole entry): as the sequence (P11309 whole entry) above

U2OS cells = assay: Cellular uptake of fluorescent probes, live-cell microscopy; format: cell-based, human; settings: 1–5 μM, 10–60 min
Procedure: For studies of the general internalization properties of ARCs, the cells were seeded at the density of 12,000–25,000 cells per well onto an Ibidi μ-plate (96-well; Ibidi GmbH, Planegg, Germany). After 24 h incubation in growth medium, the cells were treated for 10 min, 30 min, or 1 h with dilutions of compounds 6, 7, 8, or ARC-2090 (5 μM, 2.5 μM, or 1 μM final concentration) in the phenol red-free DMEM/Ham’s F12 medium supplemented with 2% ccFBS and 2 mM glutamine. Next, cells were washed twice with PBS, and imaging medium (MEMO + Supplement A 1:100) was applied subsequently. Cells were imaged with Cytation 5 wide-field microscope (BioTek; Winooski, VT, USA) using 20× air objective and the following settings: for Cy5, 623 nm LED (intensity: 2) and Cy5 filter cube (685 nm) with 104 ms integration time and detector gain value of 2; for TAMRA, 523 nm LED (intensity: 7) and RFP filter cube (593 nm) with 252 ms integration time and detector gain value of 16; for bright-field, white LED with intensity 6, 186 ms integration time and detector gain value of 15. Four independent experiments were performed.

endoprotease furin = biological target: endoprotease furin; parameters: method as in PMID 26110264; settings: cited from earlier work
[7] = KD, nM (PIM-1), TGLI or FA readout, mean ± SEM, N = 2

| Kd (PKAcα) [nM] | Kd (PIM2 [4]) [nM] | Kd (PIM3 [5]) [nM] | Kd (PIM1 [6]; [7]) [nM] | Compound | also measured |
| --- | --- | --- | --- | --- | --- |
| – | – | – | – | C[C@@H](NC(=O)CCCCCNC(=O)c1ccc(-c2ccnc(N)n2)s1)C(=O)N[C@H](CCCNC(=N)N)C(=O)N[C@H](CCCNC(=N)N)C(=O)N[C@H](CCCNC(=N)N)C(=O)N[C@H](CCCNC(=N)N)C(=O)N[C@H](CCCNC(=N)N)C(=O)N[C@H](CCCNC(=N)N)C(=O)N[C@H](CCCCN)C(=O)NCC(=O)O [ARC-1141, AMTH-Ahx-D-Ala-(D-Arg)6-D-Lys-Gly] ({X7-Ahx}-[dA][dR][dR][dR][dR][dR][dR][dK]G-OH) | ∆Tm, °C PIM-1 (PIM1 [1]): 5.2 ± 0.4 °C; ∆Tm, °C PIM-3 (PIM3 [2]): 4.9 ± 0.4 °C; ∆Tm, °C PIM-2 (PIM2 [3]): 5.9 ± 0.6 °C |
| > 83000 | – | – | – | N[C@@H]1CCCN(c2c(/C=C3\SC(=O)NC3=O)cccc2-c2ccccc2)C1 [AZD1208, reference compound] | – |
| > 18200 | 20 ± 4 | 6.6 ± 1.4 | 1.8 ± 0.3 | N=C(N)NCCC[C@@H](NC(=O)CNC(=O)[C@@H](CCCNC(=N)N)NC(=O)[C@@H](CCCNC(=N)N)NC(=O)CCCCc1cn(Cc2nc3c(sc4ccc(Br)cc43)c(=O)[nH]2)nn1)C(=O)N[C@H](CCCCN)C(N)=O [Compound 4, BBTP-Tap-(D-Arg)2-Gly-D-Arg-D-Lys-NH2] | fold higher selectivity as compared to compound 3 (PIM1 [6]; PIM-1 vs PKAcα): over 5 fold |
| > 20600 | 447 ± 52 | 30.4 ± 6.5 | 37.8 ± 9 | N=C(N)NCCC[C@@H](NC(=O)CNC(=O)[C@@H](CCCNC(=N)N)NC(=O)[C@@H](CCCNC(=N)N)NC(=O)CCCCCCCNC(=O)[C@@H]1C[C@@H](O)CN1Cc1nc2c(sc3ccc(Br)cc32)c(=O)[nH]1)C(=O)N[C@H](CCCCN)C(N)=O [Compound 5, BBTP-Hyp-Aoc-(D-Arg)2-Gly-D-Arg-D-Lys-NH2] | fold lower selectivity toward PIM-1 than compound 2 (PIM1 [6]; PIM-1 vs PKAcα): over 4 fold |
| > 303 | 5.2 ± 0.9 | 2.6 ± 0.3 | 1.7 ± 0.4 | CN1C(=CC=CC=CC2=[N+](CCCCCC(=O)NCCCC[C@@H](NC(=O)[C@@H](CCCNC(=N)N)NC(=O)CNC(=O)[C@@H](CCCNC(=N)N)NC(=O)[C@@H](CCCNC(=N)N)NC(=O)CCCCCCCNCc3nc4c(sc5ccc(Br)cc54)c(=O)[nH]3)C(N)=O)c3ccccc3C2(C)C)C(C)(C)c2ccccc21 [Compound 6, BBTP-Aoc-(D-Arg)2-Gly-D-Arg-[D-Lys(Cy5)]-NH2] | Manders' coefficient, co-localization with PIM-1-TagRFP (PIM-1-TagRFP): 0.72 ± 0.06; ability to cross the plasma membrane / internalization (U2OS cells): efficiently internalized into the cells |
| > 1080 | 28.2 ± 6.7 | 8.3 ± 1 | 21.9 ± 4 | CN1C(=CC=CC=CC2=[N+](CCCCCC(=O)NCCCC[C@@H](NC(=O)[C@@H](CCCNC(=N)N)NC(=O)CNC(=O)[C@@H](CCCNC(=N)N)NC(=O)[C@@H](CCCNC(=N)N)NC(=O)CCCCc3cn(Cc4nc5c(sc6ccc(Br)cc65)c(=O)[nH]4)nn3)C(N)=O)c3ccccc3C2(C)C)C(C)(C)c2ccccc21 [Compound 7, BBTP-Tap-(D-Arg)2-Gly-D-Arg-[D-Lys(Cy5)]-NH2] | Manders' coefficient, co-localization with PIM-1-TagRFP (PIM-1-TagRFP): 0.43 ± 0.16; ability to cross the plasma membrane / internalization (U2OS cells): efficiently internalized into the cells |
| > 89000 | > 46000 | > 16400 | > 11500 | N=C(N)NCCC[C@@H](N)C(=O)N[C@H](CCCNC(=N)N)C(=O)NCC(=O)N[C@H](CCCNC(=N)N)C(=O)N[C@H](CCCCN)C(N)=O [PIM peptide, (D-Arg)2-Gly-D-Arg-D-Lys-NH2] | Kd (PIM1 [6]; KD toward PIM-1, as worded in text): > 10000 nM |
| – | – | – | – | CN1CCC(CNc2ccc3ncc(-c4cccc(OC(F)(F)F)c4)n3n2)CC1 [SGI-1776, reference compound] | ∆Tm, °C PIM-1 (PIM1 [1]): 9.5 °C and 9.5 ± 0.4 °C; ∆Tm, °C PIM-3 (PIM3 [2]): 8.2 ± 0.3 °C; ∆Tm, °C PIM-2 (PIM2 [3]): 8.1 ± 0.6 °C |
| – | – | – | – | (D-Arg)6-NH2 | Kd (endoprotease furin): 106 nM |
| – | – | – | – | (D-Arg)9-NH2 | Kd (endoprotease furin): 1.3 nM |
| – | – | – | – | BBTP-Hyp-Ahx-(D-Arg)9-D-Lys-NH2 [ARC-3119] | ∆Tm, °C PIM-1 (PIM1 [1]): 13.7 ± 0.4 °C; ∆Tm, °C PIM-3 (PIM3 [2]): 11.9 ± 0.2 °C; ∆Tm, °C PIM-2 (PIM2 [3]): 13.9 ± 0.6 °C |
